Source: US9446051B2, “Neuroprotection and myelin repair using nestorone®” (The Population Council, Inc., priority 2009, dated 2016)

Experiments:
[1] = system: primary hippocampal neurons; assay: Neuroprotection of primary hippocampal neurons against glutamate, LDH release; format: cell-based
Procedure: The effect of NES and other progestins on CNS plasticity and the neuroprotective efficacy against glutamate toxicity has also been evaluated. LDH was measured, as a well-accepted assay, to determine such effect after exposure of the cells to glutamate, and the neuronal viability was assessed under the action of various progestins.
Comparisons of neuroprotection against neurodegenerative insults were carried out. Efficacy was determined in connection with the protection of primary hippocampal neurons against degeneration induced by excitoxic glutamate. Hippocampal neuronal cultures grown on […] culture plates for 7d in vitro were pretreated with vehicle alone or test compounds, followed by exposure to 200 μM glutamate as previously described (13). After glutamate exposure, cultures were washed with HEPES-buffered saline solution and replaced with fresh NBM containing the test compounds or combinations. Cultures were returned to the incubator and incubated for 24 hours prior to analysis of neuronal viability using colorimetric LDH release in the media. Dose-response analysis was conducted for each of the progestins tested, and the results are shown in FIGS. 7A-F. Neuroprotective efficiency was calculated as follows: NE=(Vsample−Vglutamate)/(Vsubcontrol−Vglutamate).

[2] = system: lysolecithin-demyelinated cerebellar slices; assay: Remyelination of lysolecithin-demyelinated cerebellar slices (MBP staining intensity); format: cell-based, rat or mouse; conditions: NES 20 μM, 3 days of incubation
Procedure: In the same animal model, cerebellar slices were cultured until myelination was complete, then incubated overnight with lysolecithin (LYSO) to produce demyelination utilizing a known technique, (15) followed by 3 days of incubation with NES 20 μM in fresh culture medium (10% penetration in slices). Slices were immunostained for MBP. […] MBP staining intensity was measured in cerebellar slices after completion of normal myelination, after demyelination with lysolecithin, and after 3 days of incubation with NES at 20 μm, RU486 at 10 μM, or NES+RU486.

[3] = system: neural progenitor cell (NPC); assay: Neural progenitor cell proliferation, BrdU chemiluminescence ELISA; format: cell-based, rat
Procedure: In vitro studies were carried out to determine neural progenitor cell (NPC) regeneration in rats. Cell proliferation was determined by S phase incorporation of BrdU. After 4 to 6 hours starvation (medium without supplements), rNPCs were loaded with 10 μM BrdU in the presence or absence of bFGF and varying concentrations of P4 or test progestins in unsupplemented maintenance medium for 1d. The rNPCs were then processed as described previously (1, 14). After subtracting the value of the blank (without BrdU loading), data were analyzed using a one-way ANOVA, followed by a Neuman-Keuls post hoc test.

[4] = system: hippocampi of ovariectomized female Sprague Dawley rats; format: in vivo; conditions: progestin plus E2, hippocampi 24 hours after injection, FIG. 9A
Procedure: The impact of the combination of 17β-estradiol (E2) and various progestins on neurogenesis and cell viability […] was also carried out. Young adult ovariectomized female Sprague Dawley rates were thus divided into six groups and received injection of either E2 alone or E2 combined with one of the progestins. Hippocampi were isolated 24 hours later for Western blot analysis and flow cytometry to determine the impact of treatment on cell viability and neurogenesis respectively. The expression level of PCNA was assessed to determine the impact of the treatment compounds on entry into the cell cycle required for neurogenesis.

PR^lacz mice with MCAO = assay: Transient middle cerebral artery occlusion (MCAO), steroid treatment after reperfusion; format: in vivo, mouse
Procedure: In experiments conducted using progesterone receptor (PR) deficient mice (PR^−/−) compared with PR^+/− and PR^+/+ mice and both progesterone and Nestorone® were administered after ischemia and reperfusion.
In order to test the effect of steroid treatments after reperfusion, adult male PR^lacz mice were anesthetized and the middle cerebral artery (MCA) was occluded for one hour with an intraluminal filament. After ligature of the left common carotid artery, a nylon monofilament coated with thermo-melting glue was introduced through an arteriotomy performed on the external carotid artery and advanced into the internal carotid artery. Occlusion of the MCA was controlled by monitoring the cerebral blood flow within the MCA territory by laser Doppler flowmetry. The filament was withdrawn one hour after occlusion to allow reperfusion, and the common carotid artery ligature was also removed. The mice were randomly and blindly assigned to either progesterone, allopregnanolone or Nestorone®, or vehicle-treated (sesame oil; sigma). All of the steroids were initially dissolved in a small volume of ethanol and further diluted in sesame oil to obtain the desired final steroid concentrations. Injections were given interperitoneally (IP) at 1, 6, and 24 hours after MCA occlusion (MCAO) according to established neuroprotective protocols. Treated mice were killed at 48 hours after MCAO.
Cerebral infarct volumes and areas were determined after triphenyltetrazolium chloride (TTC) staining of brain sections. The details of this procedure are set forth in “Progesterone Receptors: A Key For Neuroprotection In Experimental Stroke,” Endocrinology, August 2012, 153(8), pp. 1-11, which is incorporated herein by reference thereto in its entirety. […] In FIGS. 11, 12 and 13, after the administration of progesterone and Nestorone®, in neuronal density the infarct (FIG. 11) and the penumbra (FIG. 12) can clearly be shown. In FIG. 13 the decrease in […] in the penumbra after administration of progesterone and Nestorone® is also clearly shown.

[5] = system: hippocampus of Sprague-Dawley ovariectomized female rats; assay: In vivo NPC proliferation and cell viability in ovariectomized rats (Western blot, FACS of BrdU+ cells); parameters: species or system rat
Procedure: The generalized ability of the above in vitro findings to the in vivo condition were investigated. Analyses of NPC proliferation in rats and cell viability were conducted in three-month-old Sprague-Dawley ovariectomized female rats with various of the progestins. […] In order to assess the total number of BrdU+ cells, the contralateral hippocampal hemisphere used for protein analysis was fixed and processed by FACS analysis. The total number of BrdU+ cells per each hippocampus was determined and normalized to that of vehicle control. […] In order to measure cell viability in terms of promotion of mitochondrial function and reduction in oxidative damage expression of the alpha subunit of ATP synthase-Complex V (CVα) of the mitochondrial oxidative phosphorylation pathway was assessed by Western blot analysis.

[6] = system: androgenic, estrogenic and glucocorticoid responses; conditions: cited from earlier work
Bax/Bcl-2 = assay: In vivo apoptotic activity, Bax/Bcl-2 ratio by Western blot; conditions: indicator of in vivo apoptotic activity
From the text: The effects of various progestins on apoptosis was studied using Western blot analysis to determine the expression level of Bax, an apoptosis mediator by […] to the mitochondria to release apoptotic factors such as cytochrome c and Bcl-2. The ratio of Bax to Bcl-2 was used as an indicator of in vivo apoptotic activity.

[7] = system: organotypic neonatal rat or mouse cerebellar slice culture; assay: Myelination in organotypic cerebellar slice culture, measured by myelin basic protein (MBP) immunoreactivity; format: cell-based
From the text: In experiments conducted in organotypic neonatal rat or mouse cerebellar slice culture, progesterone accelerated axon myelination (13,14).

[8] = PR^+/+ mice, 48 hours after MCAO

## C=C1C[C@H]2[C@@H]3CCC4=CC(=O)CC[C@@H]4[C@H]3CC[C@]2(C)[C@@]1(OC(C)=O)C(C)=O [Nestorone®, 16-methylene-17α-acetoxy-19-norpregn-4-ene-3,20-dione]
[1]; FIG. 5, NES and PROG at 10−7M
  neuroprotective efficacy against glutamate toxicity (LDH): exerted the higher efficacy
[1]; dose-response, FIGS. 7A-F
  neuroprotective efficacy against 200 μM glutamate (LDH release) compared with progesterone: comparable neuroprotective efficacy to that of progesterone
[2]
  remyelination after lysolecithin demyelination: produced remyelination
[3]; FIG. 3 and FIG. 4
  proliferation of progenitor cells compared with progesterone: as effective or even more effective than progesterone
[3]; at 24 hours, FIGS. 6A-D
  NPC proliferation (BrdU incorporation) compared with progesterone: comparably efficacious at their EC100 concentrations
[4]
  PCNA expression and neural progenitor cell proliferation: greatest magnitude of PCNA expression and neural progenitor cell proliferation
PR^lacz mice with MCAO; PR^+/+ mice
  total infarct volume and ischemic lesions in cerebral cortex and subcortical structures, PR^+/+ mice: clearly reduced
PR^lacz mice with MCAO; [8]
  increase of time on the rotarod: 33%
  reduction of ischemic lesions in cerebral cortex: 22%
  reduction of ischemic lesions in subcortical structures: 52%
PR^lacz mice with MCAO; PR^+/+ mice, 48 hours after MCAO, IP at 1, 6 and 24 hours
  reduction of total infarct volume: 32%
PR^lacz mice with MCAO; PR^+/− mice
  total infarct volume and ischemic lesions in cerebral cortex and subcortical structures, PR^+/− mice: not
PR^lacz mice with MCAO; PR^−/−, PR^+/− and PR^+/+ mice, after ischemia and reperfusion
  protection against ischemic damage compared with progesterone: at least comparable results
PR^lacz mice with MCAO; after stroke
  efficient neuroprotective dose: 0.08 mg/kg
PR^lacz mice with MCAO; mouse, in vivo
  dose improving neurological outcomes relative to that of progesterone: 100 times lower
PR^lacz mice with MCAO; treatment after stroke
  microglial density in the penumbra (neuroinflammatory responses): reduced microglial density
  neuronal density in the infarct and in the penumbra: significantly increases the neuronal density
[5]; FACS, normalized to vehicle control, FIG. 8B
  total number of BrdU+ cells per hippocampus: slightly superior to progesterone in significantly increasing Brd+ cell numbers
[5]; Western blot
  CDC2 protein expression: significantly increased
[5]; Western blot, FIG. 8A
  PCNA expression at the protein level: slightly superior to progesterone
[5]; Western blot, FIG. 8C
  expression of alpha subunit of ATP synthase-Complex V (CVα): increased CVA expression even greater than progesterone and levonorgestrel
[6]
  androgenic response: no androgenic or estrogenic action at all
  estrogenic response: no androgenic or estrogenic action at all
  glucocorticoid response: does not elicit a glucocorticoid effect except at doses 2.000-fold the therapeutic dose
Bax/Bcl-2
  ratio of Bax/Bcl-2 expression: no effect
[7]
  promyelinating potency relative to PROG: significantly more potent than PROG
[7]; NES at 20 μm as active as PROG at 50 μm (FIG. 1)
  concentration of equal promyelinating activity: 20 μm
[7]; cerebellar slice culture
  myelination measured by myelin basic protein (MBP) immunoreactivity: promote dose-dependent myelination
